This note sets out measurements from patent US9765035B2 (priority 2013, dated 2017).

Read-outs that look alike come from different tables or passages of the source. A value given as a limit tells only on which side of the number the result lay.

This assay has as its target T1, human PRMT1 (Homo sapiens, UniProt Q99873).
T1 construct: GST-tagged PRMT1; made in house; host or cells: High Five insect cells (baculovirus)
In words: biochemical. From the text:
General Materials. S-adenosylmethionine (SAM), S-adenosylhomocysteine (SAH), bicine, Tween20, dimethylsulfoxide (DMSO), bovine skin gelatin (BSG), and Tris(2-carboxyethyl)phosphine hydrochloride solution (TCEP) were purchased from Sigma-Aldrich at the highest level of purity possible. ^3H-SAM was purchase from American Radiolabeled Chemicals with a specific activity of 80 Ci/mmol. 384-well streptavidin Flashplates were purchased from PerkinElmer.
Substrates. Peptide representative of human histone H4 residues 36-50 was synthesized with an N-terminal linker-affinity tag motif and a C-terminal amide cap by 21st Century Biochemicals. The peptide was purified by high-performance liquid chromatography (HPLC) to greater than 95% purity and confirmed by liquid chromatography mass spectrometry (LC-MS). The sequence was Biot-Ahx-[…]-amide (SEQ ID NO.:1).
Molecular Biology: Full-length human PRMT1 isoform 1 (NM_001536.5) transcript clone was amplified from an HEK 293 cDNA library, incorporating flanking 5′ sequence encoding a FLAG tag ([…]) (SEQ ID NO.:2) fused directly to Met 1 of PRMT1. The amplified gene was subcloned into pFastBacI (Life Technologies) modified to encode an N-terminal GST tag and a TEV cleavage sequence
Protein Expression. Recombinant baculovirus were generated according to Bac-to-Bac kit instructions (Life Technologies). Protein over-expression was accomplished by infecting exponentially growing High Five insect cell culture at 1.5×10^6 cell/ml with 1:100 ratio of virus. Infections were carried out at 27° C. for 48 hours, harvested by centrifugation, and stored at −80° C. for purification.
Protein Purification. […] GST-tagged PRMT1 was eluted with 50 mM Tris, 2 mM glutathione, pH 7.8, dialysed in buffer A and concentrated to 1 mg/mL. The purity of recovered protein was 73%. Reference: Wasilko, D. J. and S. E. Lee: “TIPS: titerless infected-cells preservation and scale-up” Bioprocess J., 5 (2006), pp. 29-32.
General Procedure for PRMT1 Enzyme Assays on Peptide Substrates. The assays were all performed in a buffer consisting of 20 mM Bicine (pH=7.6), 1 mM TCEP, 0.005% BSG, and 0.002% Tween 20, prepared on the day of use. Compounds in 100% DMSO (1 ul) were spotted into a polypropylene 384-well V-bottom plates (Greiner) using a Platemate Plus outfitted with a 384-channel head (Thermo Scientific). DMSO (1 ul) was added to Columns 11, 12, 23, 24, rows A-H for the maximum signal control and 1 ul of SAH, a known product and inhibitor of PRMT1, was added to columns 11, 12, 23, 24, rows I-P for the minimum signal control. A cocktail (40 ul) containing the PRMT1 enzyme was added by Multidrop Combi (Thermo-Fisher). The compounds were allowed to incubate with PRMT1 for 30 min at room temperature, then a cocktail (10 ul) containing SAM and peptide was added to initiate the reaction (final volume=51 ul). The final concentrations of the components were as follows: PRMT1 was 0.5 nM, ^3H-SAM was 200 nM, non-radiolabeled SAM was 1.5 uM, peptide was 20 nM, SAH in the minimum signal control wells was 1 mM, and the DMSO concentration was 2%. The assays were stopped by the addition of non-radiolabeled SAM (10 ul) to a final concentration of 300 uM, which dilutes the ^3H-SAM to a level where its incorporation into the peptide substrate is no longer detectable. 50 ul of the reaction in the 384-well polypropylene plate was then transferred to a 384-well Flashplate and the biotinylated peptides were allowed to bind to the streptavidin surface for at least 1 hour before being washed once with 0.1% Tween20 in a Biotek EL×405 plate washer. The plates were then read in a PerkinElmer TopCount plate reader to measure the quantity of ^3H-labeled peptide bound to the Flashplate surface, measured as disintegrations per minute (dpm) or alternatively, referred to as counts per minute (cpm).
Where dpm=disintegrations per minute, cmpd=signal in assay well, and min and max are the respective minimum and maximum signal controls. […]

[1] abbreviates: biochemical evaluation, peptide substrate, read-out: PRMT1 IC50.
Setting [2] is: single experiment or average of multiple experiments, read-out: PRMT1 biochemical evaluation (numerical).

T1 sequence (Q99873 other isoform, or with tags, fused parts or gaps): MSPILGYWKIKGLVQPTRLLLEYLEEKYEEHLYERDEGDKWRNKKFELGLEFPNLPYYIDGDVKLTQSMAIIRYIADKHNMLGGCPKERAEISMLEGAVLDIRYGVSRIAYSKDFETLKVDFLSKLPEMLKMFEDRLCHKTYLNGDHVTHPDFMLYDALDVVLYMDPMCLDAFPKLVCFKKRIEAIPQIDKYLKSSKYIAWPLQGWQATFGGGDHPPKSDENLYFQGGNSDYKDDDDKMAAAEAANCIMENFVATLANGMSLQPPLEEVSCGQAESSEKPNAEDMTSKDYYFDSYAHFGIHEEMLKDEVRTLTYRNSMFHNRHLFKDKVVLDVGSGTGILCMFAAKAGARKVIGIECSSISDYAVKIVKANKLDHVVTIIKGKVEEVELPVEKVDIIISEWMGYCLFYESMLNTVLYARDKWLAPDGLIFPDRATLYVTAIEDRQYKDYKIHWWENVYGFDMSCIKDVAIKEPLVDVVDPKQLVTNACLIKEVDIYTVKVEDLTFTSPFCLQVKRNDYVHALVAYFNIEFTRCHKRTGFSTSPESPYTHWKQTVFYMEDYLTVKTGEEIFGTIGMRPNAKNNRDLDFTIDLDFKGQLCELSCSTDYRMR

Regarding `CNCCN(C)Cc1n[nH]c2ccc(N3CCC4(CCCCC4)CC3)cc12` [Compound 43, N^1-((5-(3-azaspiro[5.5]undecan-3-yl)-1H-indazol-3-yl)methyl)-N^1,N^2-dimethylethane-1,2-diamine], the IC50 reads like this: under setting [1], below 100 nM; under setting [2], 434 nM.
For `CNCCN(C)Cc1n[nH]c2ccc(C3CCOCC3)cc12` [Compound 44, N^1,N^2-dimethyl-N^1-((5-(tetrahydro-2H-pyran-4-yl)-1H-indazol-3-yl)methyl)ethane-1,2-diamine], in that order: below 100 nM and 43.6 nM.
Taken in the same sequence, the figures for `CNCCN(C)Cc1n[nH]c2ccc(C3=CCOCC3)cc12` [Compound 45] were below 100 nM and 37.4 nM.
For `CNCCN(C)Cc1n[nH]c2ccc(N3CCCCC3)cc12` [Compound 46, N^1,N^2-dimethyl-N^1-((5-(piperidin-1-yl)-1H-indazol-3-yl)methyl)ethane-1,2-diamine], in that order: below 100 nM and 21.2 nM.
Turning to `CNCCN(C)Cc1n[nH]c2ccc(C3CCCCC3)cc12` [Compound 47, N^1-((5-cyclohexyl-1H-indazol-3-yl)methyl)-N^1,N^2-dimethylethane-1,2-diamine], the IC50 under setting [1] is at most 100 nM and the IC50 under setting [2] worked out at 55.5 nM.
In the case of `CNCCN(C)Cc1n[nH]c2ccc(C3=CCCCC3)cc12` [Compound 48], the IC50 reads like this: under setting [1], at most 100 nM; under setting [2], 34 nM.
Taken in the same sequence, the figures for `CNCCN(C)Cc1n[nH]c2ccc(Oc3ccccc3C(F)(F)F)cc12` [Compound 49] were 3010 to 10000 nM and 15.7 nM.
Consider `CNCCN(C)Cc1n[nH]c2ccc(OCC3CCOCC3)cc12` [Compound 50], for which the IC50 is, setting by setting: under setting [1], 3010 to 10000 nM; under setting [2], 11 nM.
Taken in the same sequence, the figures for `CNCCN(C)Cc1n[nH]c2ccc(OCC3CCN(C(C)=O)CC3)cc12` [Compound 51] were 1010 to 3000 nM and 5520 nM.
Taken in the same sequence, the figures for `CNCCN(C)Cc1n[nH]c2ccc(OCC3CCCC3)cc12` [Compound 52] were 1010 to 3000 nM and 3690 nM.
On to `CNCCN(C)Cc1c2cc(OCc3ccc(C#N)cc3)ccc2nn1C1CCOCC1` [Compound 53], for which the IC50 under setting [1] was in the range of 3010 to 10000 nM and the IC50 under setting [2] stood at 1760 nM.
With `CNCCN(C)Cc1n[nH]c2ccc(OCC3CCCCC3)cc12` [Compound 54], the IC50 is, setting by setting: under setting [1], 101 to 1000 nM; under setting [2], 2000 nM.
Taken in the same sequence, the figures for `CNCCN(C)Cc1n[nH]c2ccc(Oc3ccc(C)cc3)cc12` [Compound 55] were below 100 nM and 6550 nM.
Turning to `CNCCN(C)Cc1n[nH]c2ccc(Oc3ccccc3OC(C)C)cc12` [Compound 56], the IC50 is below 100 nM under setting [1] and 994 nM under setting [2].
In the case of `CNCCN(C)Cc1n[nH]c2ccc(Oc3ccc(Cl)cc3)cc12` [Compound 57], the IC50 under setting [1] lay in the range of 101 to 1000 nM and the IC50 under setting [2] was 43.3 nM.
Taken in the same sequence, the figures for `CNCCN(C)Cc1n[nH]c2ccc(OC3CCN(C(C)=O)CC3)cc12` [Compound 58, 1-(4-((3-((methyl(2-(methylamino)ethyl)amino)methyl)-1H-indazol-5-yl)oxy)piperidin-1-yl)ethan-1-one] were 101 to 1000 nM and 57.9 nM.
Taken in the same sequence, the figures for `CNCCN(C)Cc1n[nH]c2ccc(Oc3ccc(OC)cc3)cc12` [Compound 59] were below 100 nM and 101 nM.
For `CNCCN(C)Cc1n[nH]c2ccc(Oc3ccccc3C)cc12` [Compound 60], in that order: below 100 nM and 353 nM.
Consider `CNCCN(C)Cc1n[nH]c2ccc(Oc3ccc(OC(C)C)cc3)cc12` [Compound 61], for which the IC50 reads like this: under setting [1], below 100 nM; under setting [2], 40.8 nM.
Taken in the same sequence, the figures for `CNCCN(C)Cc1nn(C(C)C)c2ccc(OCc3ccc(C#N)cc3)cc12` [Compound 62] were 1010 to 3000 nM and 56.5 nM.
Taken in the same sequence, the figures for `CCOc1ccc2[nH]nc(CN(C)CCNC)c2c1` [Compound 63] were 101 to 1000 nM and 98.6 nM.
For the compound `CNCCN(C)Cc1n[nH]c2ccc(OC(C)C)cc12` [Compound 64], the IC50 was at most 100 nM under setting [1] and 2630 nM under setting [2].
Taken in the same sequence, the figures for `CCCOc1ccc2[nH]nc(CN(C)CCNC)c2c1` [Compound 65] were at most 100 nM and 128 nM.
For `CNCCN(C)Cc1n[nH]c2ccc(OCc3cccc(C(N)=O)c3)cc12` [Compound 66], in that order: below 100 nM and 35 nM.
As for `CNCCN(C)Cc1n[nH]c2ccc(Oc3cccc(OC(C)C)c3)cc12` [Compound 67], the IC50 by setting is: under setting [1], below 100 nM; under setting [2], 24.8 nM.
With `CNCCN(C)Cc1n[nH]c2ccc(OCc3ccc(C(F)(F)F)cc3)cc12` [Compound 68], the IC50 reads like this: under setting [1], 101 to 1000 nM; under setting [2], 91.5 nM.
On to `CNCCN(C)Cc1n[nH]c2ccc(OCc3ccc(C(N)=O)cc3)cc12` [Compound 69], for which the IC50 runs as follows: under setting [1], 101 to 1000 nM; under setting [2], 30.3 nM.
Taken in the same sequence, the figures for `CNCCN(C)Cc1n[nH]c2ccc(OCc3cccc(NC(C)=O)c3)cc12` [Compound 70] were 101 to 1000 nM and 188 nM.
Turning to `CNCCN(C)Cc1n[nH]c2ccc(OCc3ccc(C(C)(C)C)cc3)cc12` [Compound 71], the IC50 is, setting by setting: under setting [1], 101 to 1000 nM; under setting [2], 203 nM.
For `CNCCN(C)Cc1n[nH]c2ccc(OCc3cccc(C(F)(F)F)c3)cc12` [Compound 72], in that order: below 100 nM and 182 nM.
For `CNCCN(C)Cc1n[nH]c2ccc(OCc3cccc(C(C)=O)c3)cc12` [Compound 73], in that order: below 100 nM and 143 nM.
In the case of `CNCCN(C)Cc1n[nH]c2ccc(OCc3cccc(C(C)(C)C)c3)cc12` [Compound 74], the IC50 is, setting by setting: under setting [1], 101 to 1000 nM; under setting [2], 23 nM.
